Results from patent publication US20200079765A1, “SUBSTITUTED HETEROARYL PYRROLONES AND SALTS THEREOF AND USE THEREOF AS HERBICIDAL ACTIVE SUBSTANCES” (Bayer CropScience Aktiengesellschaft, priority 2016, published 2020).

Experiments:
Format in all cases: in vivo
Ipomoea purpurea = assay: Pre-emergence herbicidal action (Experimental Part 1, B); details: application rate 1280 g/ha, scored visually after about 3 weeks
Method in brief: (§1)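 Seeds were sown in pots and covered with soil; compounds formulated as WP or EC were sprayed onto the soil surface as aqueous suspension or emulsion with 0.5% additive at 600 l/ha water, at 1280 g/ha or 320 g/ha. Pots were held in the greenhouse and damage was scored visually after about 3 weeks as % versus untreated controls.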

Alopecurus myosuroides = assay: as above; details: scored visually after about 3 weeks
Method in brief: as §1

Abutilon theophrasti = assay: as above; details: scored visually after about 3 weeks
Method in brief: as §1

Veronica persica = assay: as above; details: application rate 1280 g/ha, scored visually after about 3 weeks
Method in brief: as §1

Stellaria media = assay: as above; details: scored visually after about 3 weeks
Method in brief: as §1

Hordeum murinum = assay: as above; details: scored visually after about 3 weeks
Method in brief: as §1

Echinochloa crus-galli = assay: as above; details: application rate 1280 g/ha, scored visually after about 3 weeks
Method in brief: as §1

Amaranthus retroflexus = assay: as above; details: scored visually after about 3 weeks
Method in brief: as §1

Lolium rigidum [1] = assay: as above; details: application rate 1280 g/ha, scored visually after about 3 weeks
Method in brief: as §1

Setaria viridis = assay: as above; details: scored visually after about 3 weeks
Method in brief: as §1

Viola tricolor = assay: as above; details: scored visually after about 3 weeks
Method in brief: as §1

Matricaria inodora = assay: as above; details: scored visually after about 3 weeks
Method in brief: as §1

Polygonum convolvulus = assay: as above; details: scored visually after about 3 weeks
Method in brief: as §1

Avena fatua = assay: as above; details: scored visually after about 3 weeks
Method in brief: as §1

Lolium rigidum [2] = assay: Post-emergence herbicidal action (Experimental Part 1, A); details: application rate 1280 g/ha, rated visually after about 3 weeks
Method in brief: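 Plants grown in sandy loam in the greenhouse were sprayed at the one-leaf stage, 2 to 3 weeks after sowing, with WP or EC formulations in water plus 0.5% additive at 600 l/ha. Rates were 1280 g/ha or 320 g/ha. Damage was scored visually after about 3 weeks versus untreated controls.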

Row | Compound | Ipomoea purpurea, herbicidal activity (Ipomoea purpurea) | Alopecurus myosuroides, herbicidal activity (Alopecurus myosuroides; application rate 320 g/ha) | Alopecurus myosuroides, herbicidal activity (Alopecurus myosuroides; application rate 1280 g/ha) | Abutilon theophrasti, herbicidal activity (Abutilon theophrasti; application rate 320 g/ha) | Abutilon theophrasti, herbicidal activity (Abutilon theophrasti; application rate 1280 g/ha) | Veronica persica, herbicidal activity (Veronica persica) | Stellaria media, herbicidal activity (Stellaria media; application rate 320 g/ha) | Stellaria media, herbicidal activity (Stellaria media; application rate 1280 g/ha) | Hordeum murinum, herbicidal activity (Hordeum murinum; application rate 1280 g/ha) | Echinochloa crus-galli, herbicidal activity (Echinochloa crus-galli) | Amaranthus retroflexus, herbicidal activity (Amaranthus retroflexus; application rate 320 g/ha) | Amaranthus retroflexus, herbicidal activity (Amaranthus retroflexus; application rate 1280 g/ha) | Lolium rigidum, herbicidal activity (Lolium rigidum [1]) | Setaria viridis, herbicidal activity (Setaria viridis; application rate 320 g/ha) | Setaria viridis, herbicidal activity (Setaria viridis; application rate 1280 g/ha) | Viola tricolor, herbicidal activity (Viola tricolor; application rate 320 g/ha) | Viola tricolor, herbicidal activity (Viola tricolor; application rate 1280 g/ha) | Matricaria inodora, herbicidal activity (Matricaria inodora; application rate 320 g/ha) | Matricaria inodora, herbicidal activity (Matricaria inodora; application rate 1280 g/ha) | Polygonum convolvulus, herbicidal activity (Polygonum convolvulus; application rate 320 g/ha) | other results
1 | CC1=CC(=O)N(c2cc(C(C)(C)C)on2)C1O (stereo not drawn) [I.1-162, 5-Hydroxy-4-methyl-1-(5-tert-butyl-1,2-isoxazol-3-yl)-1,5-dihydro-2H-pyrrol-2-one] | 100% | 90% | 100% | 100% | 100% | 100% | 100% | 100% | 100% | 100% | 100% | 100% | 100% | 100% | 100% | 100% | 100% | 100% | 100% | 100% | Hordeum murinum, herbicidal activity (Hordeum murinum; application rate 320 g/ha): 90%; Polygonum convolvulus, herbicidal activity (Polygonum convolvulus; application rate 1280 g/ha): 100%; Avena fatua, herbicidal activity (Avena fatua; application rate 320 g/ha): 90%; Avena fatua, herbicidal activity (Avena fatua; application rate 1280 g/ha): 100%
2 | CCC(=O)OC1C(C)=CC(=O)N1c1cc(C(C)(C)C)on1 (stereo not drawn) [I.5-162] | 90% | 90% | 90% | 100% | 100% | 100% | 100% | 100% | 100% | 100% | 100% | 100% | 90% | 100% | 100% | 100% | 100% | 100% | 100% | 100% | Polygonum convolvulus, herbicidal activity (Polygonum convolvulus; application rate 1280 g/ha): 100%; Avena fatua, herbicidal activity (Avena fatua; application rate 320 g/ha): 90%; Avena fatua, herbicidal activity (Avena fatua; application rate 1280 g/ha): 90%; Lolium rigidum, herbicidal activity (Lolium rigidum [2]): 90%
